System: ABCA1 mRNA
Assay: Quantitative analysis of ABCA1 mRNA (TaqMan PCR) in RAW264.7 cells
Format: cell-based, mouse
Details: 100 nM test compound, 24 hr, normalised to β-actin, DMSO = 100
Protocol: The mouse monocyte/macrophage cell line, RAW264.7 (ATCC TIB71) was purchased from Dainippon Pharmaceutical Co., Ltd. As the medium, the Dulbecco's modified Eagle's medium (DMEM medium; GIBCO, Cat. No. 11995-040) containing bovine fetal serum (the final concentration: 10% (v/v), MOREGATE, lot No. 474030), penicillin G (the final concentration: 50 units/mL, GIBCO) and streptomycin (the final concentration: 20 μg/mL, GIBCO) was used.
The culture of RAW264.7 cells was carried out in a CO2 incubator (37° C., 95% R.H., 5% of CO2).
A 2 ml volume of RAW264.7 cells suspension (1×10^6 cells/mL) was plated in each well of a 6-well plate (2×10^6 cells/well) and the cells were incubated for 2 hr in a CO2 incubator. The test compounds dissolved in DMSO were diluted with DMEM medium by 20 times, and were added to the wells at a volume of 4 μL/well (final concentration of the test compound: 100 nM). As the control, the DMSO solution was diluted with the DMEM medium by 20 times, and was added to the wells at the volume of 4 μL/well. After the cells were cultured in a CO2 incubator for 24 hr, the medium was removed and the total RNA was purified by using an RNeasy Mini Kit (Qiagen), according to the protocol attached. The concentration of the RNA in the samples obtained was calculated from absorbance at 260 nm (A260=1=40 μg/ml). Six (6) μg of total RNA were diluted with RNAase-free water so as to be 22.6 μL, which was heated at 65° C. for 10 min, and then was cooled on ice. The RNA in the solution was used as the template, and the cDNA was synthesized by using a First-strand cDNA Synthesis Kit (Amersham Pharmacia Biotech). In this reaction, a solution was prepared having the following composition and was reacted at 37° C. for 1 hr.
After the reaction, 3 μL of soution were collected from each of the reaction mixtures of the test compound-treated cell samples and that of the control cell samples. The mixed solution was used as the standard solution. The standard solution and each reaction solution were purified with a Chroma Spin-100+DEPC-H2O Column according to the protocol attached, and they were used as the template for TaqMan PCR (Template). In order to draw the calibration curve, the standard solution was diluted by every 5 times for 5 steps and each solution was used for TaqMan PCR. TaqMan PCR was carried out in ABCA1 and β-actin. As Primers for use in the TaqMan PCR, 4 oligonucleotides (abca1 forward (S3), abca1 reverse (AS3), β-actin forward (S4) and β-actin reverse (AS4)) were designed which are shown in sequences No. 5 to 8 in the sequence table described later. The synthesis and purification of these 4 oligomers was ordered from Amersham Pharmacia Biotech Co.
As FAM-TAMRA labelled TaqMan Probe, 2 kinds of oligonucleotides (abca1 (p1) and β-actin (p2)) were designed and were ordered from Applied Biosystems Co. to synthesize and purify.
The following reaction mixture of ABCA1 or β-actin was divided into 2 wells of a MicroAmp Optical 96-well Reaction Plate (Applied Biosystem Co.). TaqMan Universal PCR Master Mix was purchased from Applied Biosystem Co.
The plate was covered with a MicroAmp Optical Cap (Applied Biosystems Co.), and TaqMan PCR was carried out by using an ABI PRISM 7,700 Sequence Detection System (Applied Biosystem Co.) under the following conditions:
An analysis was made according to the procedures described in the manual of Sequence Detection Software (Applied Biosystem Co.) and the increased rate of ABCA1 mRNA due to the test compound was calculated based on the following equation.
A: Amount of the ABCA1 mRNA in the presence of the test compound
B: Amount of the β-actin mRNA in the presence of the test compound
C: Amount of the ABCA1 mRNA in the presence of DMSO
D: Amount of the β-actin mRNA in the presence of DMSO
Increase Rate (%) of ABCA1 mRNA=(A/B)/(C/D)×100

Structure (SMILES): O=C(Nc1ccc(-c2ccc(O)cc2)cc1)c1cc([N+](=O)[O-])ccc1Cl [Example 135, N-[4-(4-Hydroxyphenyl)phenyl]-2-(chloro-5-nitrophenyl)carboxamide]
- Rate of Increase (%) of ABCA1 mRNA: 163.0%
